These results are taken from patent US11957766B2, “HNQO1-activatable fluorescent probe for imaging cancer cells in-vitro and in-vivo” (Texas Tech University System, priority 2019, dated 2024).

Data set [1] relates to human NQO1 transfected MDA-MB-231 cells. The data set is described as follows: NIR-ASM in NQO1 gene transfected MDA-MB-231 cells. Format: cell-based. Conditions: microscopy and flow cytometry. How it is done:
Chemical and genetic approaches confirm the specificity of NIR-ASM for NQO1 in live tumor cells. A fluorescence probe with high sensitivity, simple operation, and excellent specificity will be an asset for the detection of NQO1 in situ. To assess the substrate selectivity of NIR-ASM for NQO1, both A549 and H460 cells were pretreated with 100 nM of NQO1 inhibitor ES936 for 6 h, before incubating with 10 μM NIR-ASM. […] The effect of ES936 on endogenous NQO1 activity and subsequent reactivity with NIR-ASM was also determined by flow cytometry. […] The presence of NQO1 protein in the transfected MDA-MB-231 cells and its absence in the untransfected control was confirmed by immunoblotting (FIG. 13E). Subsequently, the NQO1-negative and positive MDA-MB-231 cell lines were incubated with NIR-ASM and analyzed by fluorescence microscopy and flow cytometry for activation of the probe.
NQO1 plasmid transfection. Cells were seeded at 60% confluence in six-well plates 16 h before transfection with the desired plasmids. Transfections were carried using a plasmid expressing wild-type NQO1 (pCDNA3 NQO1-Flag, addgene, 61729) and X-tremeGENE DNA transfection reagent (Roche) according to manufacturer instructions. One μg DNA was used in each transfection and cell extracts were prepared 24 h post-transfection to confirm NQO1 protein expression by Western blotting.

In the next data set the test system is A549 and H460 cells. The data set is described as follows: Flow cytometry of NIR-ASM in NQO1-positive cancer cell lines. The format is cell-based, human. Conditions: 60 min, about 1×10^4 cells. Here is the method:
Detection of NQO1 in live cells. Inspired by the excellent biocompatibility, the inventors investigated its performance in both NQO1 expressing cancer cells (A549, H460) and NQO1 non-expressing normal cells (IMR90, HUVEC). All cells were incubated with NIR-ASM (10 μM) for 60 min, washed with PBS and were imaged under a confocal microscope after counterstaining the nuclei with Hoechst 33342 (FIG. 12A). […] The higher expression of NQO1 protein in A549 and H460 cells and its absence in normal cells, IMR90 and HUVEC as found with western blot analysis correlated with the probe reactivity in cells (FIG. 12B). […] Cell sorting using flow cytometry is a well-established technology in clinical diagnostics and biomedical research. To assess the applicability of the NIR-ASM to rapidly detect and quantify in both cancer and normal cells based on NQO1 expression, the probe was incubated with cell suspensions for 60 min, and about 1×10^4 cells were analyzed on a flow cytometer.
Flow cytometry analysis. The endogenous NQO1 activity of cancer cells and normal cells was determined by flow cytometry after NIR-ASM exposure. Cells were incubated with 10 μM of NIR-ASM for 60 min, harvested by trypsinization and washed with PBS. For inhibitor study, cells were pretreated with NQO1 inhibitor ES936 (100 nM) for 6 h before adding the NIR-ASM. About 1×10^4 cells were analyzed by flow cytometry (λex=488 nm).
A general note: Flow cytometry measures light scatter and fluorescence of single cells or particles in a stream.

Data set [2] deals with Lewis Lung carcinoma (LLC) tumors. In words: In vivo and ex vivo NIRF imaging with NIR-ASM in Lewis Lung carcinoma (LLC) lung cancer model. Also on record: species or system C57BL/6 mice. The source says:
Whether still in-situ or already disseminated, early diagnosis of cancer is an essential requirement for successful therapy. Although NQO1 is expressed at higher levels in cancers compared to a diminished or absent status in normal tissues, the diagnostic potential of existing NQO1 specific fluorescent probes has not been realized. Therefore, the inventors evaluated the non-invasive diagnostic ability of NIR-ASM in a metastatic syngeneic lung cancer model to mimic the clinical situation. Lung cancer was established in C57BL/6 mice by injecting Lewis Lung carcinoma (LLC) cells (0.5×10^6 per animal) intravenously. This cell line is highly tumorigenic and is primarily used to model metastasis as well as evaluate the efficacy of chemotherapeutic agents in vivo.^44 The LLC cells have ˜80 units of NQO1 activity compared to <10 units in healthy mouse lungs.^45 Two weeks after the implantation, the animals received NIR-ASM (5 mg/kg) intravenously. […] There are several routes for drug elimination from the body and the majority of drugs are eliminated by pathways that involve the kidneys.
In vivo bioimaging. The animal study protocol was approved by the Institutional Animal Use and Care Committee (IACUC), Texas Tech University Health Sciences Center, Protocol number: 07050. All experimental protocols used in this study were approved by IACUC, Texas Tech University Health Sciences Center and all the methods were carried out according to the committee guidelines. Female athymic nude mice (nu/nu, 4-6 weeks) were purchased from Charles River Laboratories (Wilmington, MA, USA). BALB/c57 mice were provided by Dr. Constantinos Mikelis of our University. To establish A549 or MDA-MB-231 xenografts, a total of 5×10^6 cells (in 0.1 ml of serum-free media and Matrigel (1:1)) were subcutaneously injected into the flanks of the mice. For developing orthotopic lung cancer models, LLC cells (0.5×10^6) were intravenously injected into the tail veins of female BALB/c57 mice. All animals were monitored for activity, physical condition, body weight, and tumor growth. To detect endogenous NQO1 activity, NIR-ASM was dissolved in a vehicle of composition, PEG-300:EtOH:saline (60:30:10, v/v/v) and given intravenously through tail vein injection. The animals were imaged at different time intervals with excitation/emission filters of 500/640 nm using the IVIS Lumina XR Imaging system. At the end of the experiments, the xenografted tumors, hearts, lungs, livers, kidneys, spleens, and brains were removed and imaged to confirm the signal locations. Fluorescence represented in log values of radiance is photons per second per square centimeter per steradian.

For a further data set, the system named is DAOY and T98G cells. The data set is described as follows: Flow cytometry of NQ-DCP activation. Format: cell-based, human. As to conditions: 10 μM, λem=586/40, about 1×10^4 cells. How it is done: Applicability of NQ-DCP for Flow Cytometry. Flow cytometry assays were used to assess the applicability of the NQ-DCP probe to rapidly detect and quantify tumor cells containing hNQO1. The probe was incubated with cell suspensions (DAOY and T98G) for 30 min and a flowcytometry was used to measure the fluorescence (λem=586/40) in about 1×10^4 individual cells.
Cell Culture, Fluorescence Imaging, and Flow Cytometry Analysis. Brain tumor cells and astrocytes were grown in Dulbecco's modified Eagle's (DMEM) medium containing 10% Fetal Bovine Serum and 1% penicillin/streptomycin in a humidified atmosphere of 5% CO2 at 37° C. For fluorescence imaging, initially, cells were seeded into 6-well plate and cultured overnight in respective media at 37° C. Media was replaced with fresh medium containing 10 μM NQ-DCP and incubated at 37° C. for 60 min and then the medium was replaced with PBS and live cells were imaged using a fluorescence microscope. For inhibitor study, cells were pretreated with NQO1 inhibitor ES936 (100 nM) for 6 h before adding the NQ-DCP. For determining endogenous hNQO1 activity in cancer cells using flow cytometry, about 10×10^4 cells were incubated with 10 μM of NQ-DCP for 60 min and were analyzed using flow cytometry.

In the case of `CC1=C(C)C(=O)C(C(C)(C)CC(=O)Nc2ccc(/C=C/C3=CC(=C(C#N)C#N)CC(C)(C)C3)cc2)=C(C)C1=O` [NIR-ASM, (E)-N-(4-(2-(3-(dicyanomethylene)-5,5-dimethylcyclohex-1-en-1-yl)vinyl)phenyl)-3-methyl-3-(2,4,5-trimethyl-3,6-dioxocyclohexa-1,4-dien-1-yl)butanamide], the “fluorescence after NQO1 gene transfection” value in data set [1] is “intense fluorescence”. Moreover, in the data set on A549 and H460 cells, the “flow cytometry fluorescence signal, NQO1-positive cells” value is “high-intensity unimodal distribution of signals”. In addition, the “time of maximum fluorescence intensity” value in data set [2] (5 mg/kg intravenous) worked out at 30 min. Moreover, in data set [2] (5 mg/kg intravenously, two weeks after implantation), the “NIRF signal intensity of tumor-bearing lungs compared to other selected organs” value is on record as “more than 100 fold”. Besides, the route of elimination result in data set [2] (fluorescence observed in kidneys during ex vivo NIRF imaging) was “renal excretion might play an important role”. For the same compound, the “fluorescence in the lungs of healthy mice” value in data set [2] (non-tumor-bearing mouse, intravenous NIR-ASM) was “no fluorescence observed”.
On to `CC1=C(C)C(=O)C(C(C)(C)CC(=O)Oc2ccc(/C=C/C3=CC(=C(C#N)C#N)CC(C)(C)C3)cc2)=C(C)C1=O` [NQ-DCP], for which the “flow cytometry fluorescence signal” value in the data set with DAOY and T98G cells was “high-intensity unimodal distribution of signal”.
